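Step 1: Grow cells in 96-well plates. Step 2: Expose to compound for 48 hours at 5 concentrations. Step 3: Interpolate endpoints linearly; if unreached, use highest concentration. Definition used: TGI = concentration required for complete inhibition of growth.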
How the values were obtained:
Test in all cases: NCI tumour cell line growth inhibition, 48 h
HCT-15 colon = system: HCT-15 colon
HL-60(TB) leukemia = system: HL-60(TB) leukemia
786-0 renal = system: 786-0 renal
NCI-H522 lung = system: NCI-H522 lung
RXF-631 renal = system: RXF-631 renal
SF-295 CNS = system: SF-295 CNS
HT29 colon = system: HT29 colon
HOP-18 NSCLC = system: HOP-18 NSCLC
KM20L2 colon = system: KM20L2 colon
SNB-78 CNS = system: SNB-78 CNS
SF-268 CNS = system: SF-268 CNS
SN12C renal = system: SN12C renal
A498 renal = system: A498 renal
IGROV1 ovarian = system: IGROV1 ovarian
DMS 114 small cell lung = system: DMS 114 small cell lung
SW-620 colon = system: SW-620 colon
ACHN renal = system: ACHN renal
EKVX NSCLC = system: EKVX NSCLC
KM12 colon = system: KM12 colon
HCC-2998 colon = system: HCC-2998 colon
RXF 393 renal = system: RXF 393 renal
U251 CNS = system: U251 CNS
SF-539 CNS = system: SF-539 CNS
SNB-75 CNS = system: SNB-75 CNS
SNB-19 CNS = system: SNB-19 CNS
XF 498 CNS = system: XF 498 CNS
HOP-62 NSCLC = system: HOP-62 NSCLC
OVCAR-8 ovarian = system: OVCAR-8 ovarian
M19-MEL melanoma = system: M19-MEL melanoma
SK-OV-3 ovarian = system: SK-OV-3 ovarian
CAKI-1 renal = system: CAKI-1 renal
M14 melanoma = system: M14 melanoma
MOLT-4 leukemia = system: MOLT-4 leukemia
NCI-H460 lung = system: NCI-H460 lung
OVCAR-5 ovarian = system: OVCAR-5 ovarian
MALME-3M melanoma = system: MALME-3M melanoma
SK-MEL-28 melanoma = system: SK-MEL-28 melanoma
HCT-116 colon = system: HCT-116 colon
SK-MEL-5 melanoma = system: SK-MEL-5 melanoma
OVCAR-4 ovarian = system: OVCAR-4 ovarian
LXFL 529 NSCLC = system: LXFL 529 NSCLC
UO-31 renal = system: UO-31 renal
OVCAR-3 ovarian = system: OVCAR-3 ovarian
HOP-92 NSCLC = system: HOP-92 NSCLC
SR leukemia = system: SR leukemia
TK-10 renal = system: TK-10 renal
K-562 leukemia = system: K-562 leukemia
DMS 273 small cell lung = system: DMS 273 small cell lung
DLD-1 colon = system: DLD-1 colon
NCI-H226 lung = system: NCI-H226 lung
SK-MEL-2 melanoma = system: SK-MEL-2 melanoma
UACC-62 melanoma = system: UACC-62 melanoma
COLO 205 colon = system: COLO 205 colon
NCI-H23 lung = system: NCI-H23 lung
LOX IMVI melanoma = system: LOX IMVI melanoma
UACC-257 melanoma = system: UACC-257 melanoma
RPMI-8226 leukemia = system: RPMI-8226 leukemia
A549 NSCLC = system: A549 NSCLC

Measured: TGI

N#CCCN(c1ccc(C=Nc2ccccc2Cl)cc1)S(=O)(=O)c1ccccc1
> 100 µM: all assays above
